The values below come from a melting point compilation (Tetko et al.; mined from patent text by program, amines drawn as free bases though some values may be those of a salt).

Consider `CN1CCN(c2cc3c(cc2F)c(=O)c(C(=O)O)cn3C2CC2)CC1c1ccsc1` (stereo unspecified), for which the melting point was 230 °C.
Under `CCOC(=O)N1CCN(c2cn(Cc3ccccc3)c3cc(OC)ccc3c2=O)CC1` stands 173 to 174 °C; under `COc1cc(N)c(Cl)cc1C(=O)NCC1CCN(CCCCCOc2cccc3ccccc23)CC1`, 91 to 93 °C; under `O=C1c2ccccc2C(=O)N1CC(=O)N1c2ccccc2N(Cc2cccc(OCc3ccccc3)c2)C(=O)[C@H]2CCC[C@H]21` (relative stereo), 196 to 198 °C.
With `C#CCCCOc1ccc(/C=C/C(=O)Nc2ccccc2C(=O)O)cc1OC`, the melting point is 166 to 168 °C.
Molecule `CCCCCCCCNC(=O)N1CCC(S(=O)(=O)c2ccc(CCNC[C@H](O)COc3ccc(O)c(C)c3)cc2)CC1` returned a melting point of 58 to 71 °C.
The same measure for `OCc1c(Cl)cc(Cl)cc1Cl`: 100 to 101 °C; for `CN1CCC(c2c[nH]c3ccc(OS(=O)(=O)c4ccc(Cl)cc4)cc23)CC1`: 182 to 184 °C; for `COC(=O)C(=O)Nc1ccc(C#N)c(NC(=O)C(=O)OC)c1`: 155 to 160 °C.
`CSc1ccc(-c2cc(-c3nc4ccccc4c(=O)n3-c3ccccc3)sc2N2CCOCC2)cc1` had a melting point of 218 to 220 °C.
Under `COc1ccc(N)c(OC)c1-c1ccc(C[C@H](NC(=O)c2c(Cl)cccc2Cl)C(=O)O)cc1` stands 231 to 232 °C.
Turning to `O=C(c1ccc(C(=O)N2CC3COCC3C2)cc1)N1CC2COCC2C1` (stereo unspecified), the melting point lay within 192 to 193 °C.
`O=[N+]([O-])c1c(-c2ccccc2)nn(CCCn2nc(-c3ccccc3)c([N+](=O)[O-])c2NCc2ccccc2)c1NCc1ccccc1` showed a melting point of 142 to 144 °C.
Regarding `CCOC(=O)c1ncc2[nH]c3cccc(Oc4ncccn4)c3c2c1COC`, the melting point is 96 to 98 °C.
The same measure for `COc1ccc(Cc2ccc(CO)cc2)cc1`: 68 to 72 °C; for `O=C1C(CCO)Oc2ccc(C(F)(F)F)cc2N1Cc1cccc(Cl)c1` (stereo unspecified): 92 to 94 °C.
`CC1(c2nn(-c3c(Cl)cc(C(F)(F)F)cc3Cl)c(N)c2C#N)CC1(Cl)Cl` (stereo unspecified) yielded a melting point of 209 to 210 °C.
Regarding `CCC(=O)O[C@H]1C[C@@H](C(=O)OC)[C@]2(C)CC[C@H]3C(=O)O[C@H](c4ccoc4)C[C@]3(C)[C@H]2C1=O`, the melting point lay in the range of 217 to 221 °C.
Turning to `CCCCCC(=O)N1CCN2C[C@@H](c3ccccc3)c3ccccc3[C@@H]2C1` (relative stereo), the melting point was in the range of 163 to 164 °C.
Under `OCCCOc1ccc(-c2ccccc2)cc1` stands 123 to 124 °C.
For the molecule `CCOCc1nc2c(N)nc3cc(CCCN4CCOCC4)ccc3c2n1CC(C)(C)O`, the melting point lay within 132 to 133 °C.
As for `CN(C)Cc1noc(-c2nn(Cc3ccccc3)c3ccccc23)n1`, the melting point was 93 to 95 °C.
`CCCCc1nc2ccccc2n1Cc1ccc(C(=O)O)cc1` gave a melting point of 229 to 231 °C.
The same measure for `c1ccc(CSc2nc[nH]n2)cc1`: 79 to 80 °C; for `CCOC(=O)c1ncn2c(-c3ccccc3)ccnc12`: 200 to 204 °C.
As for `CCCCCCCCCCCCCCCCCC(=O)c1ccc(O)c(C(=O)O)c1`, the melting point is 128 to 132 °C.
In turn, `CC(=O)c1ccc(S(=O)(=O)N2CCN(C)CC2)cc1` showed a melting point of 118 to 119 °C.
In the case of `CC(CCO)c1ccc(-c2ccccc2)c(F)c1` (stereo unspecified), the melting point came out at 72 °C.
Under `COc1ccc2[nH]c(-c3ccccc3)cc2c1` stands 148 to 149 °C; under `CN(C)c1nnc(NN)c(=O)[nH]1`, 264 to 266 °C; under `NCc1ccn(C2=CC3=C(CC2)CCc2[nH]c(=O)c(=O)n(CC(=O)O)c23)c1`, above 250 °C.
The same measure for `COc1ccccc1S(=O)(=O)N(C)c1cccc2cc(C3=NCC(CCO)S3)[nH]c12` (stereo unspecified): 154 to 155 °C; for `O=C(Nc1ccc(C(=O)N2Cc3cccn3Cc3ccccc32)cc1)c1cc(Cl)ccc1Cl`: 218 to 220 °C; for `CCCCCCCCCC(=O)Nc1ccc(S(=O)(=O)Nc2nnc(CO)s2)cc1`: 69 to 70 °C.
`CCc1c(C(=O)C(N)=O)c2c(OCC(=O)N(C)OCc3ccccc3)cccc2n1Cc1ccccc1` showed a melting point of 186 to 188 °C.
The same measure for `Cc1c(CC(=O)O)c(=O)oc2cc(O)c(O)c([N+](=O)[O-])c12`: above 350 °C; for `CC(C)OC(=S)NC1(N=NC(C)(C)C)CCCCC1`: 62 to 64 °C; for `Cc1cc(C)cc(Sc2c(CO)nc(C)n2C)c1`: 198 to 199 °C.
Under `O=C(O)c1cc(-n2c(-c3ccccc3)cc3c2CCc2ccccc2-3)ccc1S` stands 260 to 262 °C.
Under `COc1cc(N)c(Cl)cc1C(=O)NCCN(C)C1CC1` stands 164 to 165 °C; under `Cc1[nH]c(C(C)(C)C)nc1C=O`, 196 to 198 °C.
The molecule `COc1ccc(C(=O)NCCC=CCCCNC(=O)c2ccc(OC)cc2)cc1` had a melting point of 141 to 143 °C.
`CC1(C)OCC(c2nc3c(C(F)(F)F)cccc3c(O)c2C(=O)Nc2nccs2)O1` (stereo unspecified) showed a melting point of 250 °C.
Turning to `CCCc1nn(-c2ccc(C(F)(F)F)cn2)cc1CCCOc1cccc(CCC(=O)O)c1`, the melting point was in the range of 97 to 98 °C.
Under `Cc1sc2c(c1C)C(c1ccc(Cl)cc1)=N[C@@H](CC(=O)NCCO)c1nnc(C)n1-2` stands 254 to 255 °C.
With `Cn1c([N+](=O)[O-])cnc1-c1nnc2ccc(N=CN3CCC(O)CC3)nn12`, the melting point was 188 to 190 °C.
Under `CCCN(c1ccncc1)N1C(=O)C2(CCN(C)CC2)c2ccccc21` stands 125 to 127 °C; under `CNc1nc(N)nc(-c2ccccc2)c1-c1ccc(=O)n(C(C)C)n1`, 268 to 270 °C.
Molecule `CC1(C)OC(=S)Nc2ccc(-c3cc(Cl)cc(C#N)c3)cc21` gave a melting point of 249 to 251 °C.
In turn, `CC(Oc1cccc(Cl)c1)c1ccnc2ncnn12` (stereo unspecified) displayed a melting point of 124 to 126 °C.
The molecule `CCCC[C@H](NC(=O)[C@H](CC(C)C)NC(=O)OCc1ccccc1)C(=O)CSC` came in with a melting point of 80 to 82 °C.
`CCOC(C(=O)O)c1ccc2c(c1)C(C)(C)CCC2(C)C` (racemic) registered a melting point of 106 to 109 °C.
On to `CCNC(=O)C(C)(Cc1cc2ccccc2s1)C(N)=O` (stereo unspecified), for which the melting point was 141 to 143 °C.
Take `COc1cc2cc(CO)nc(-c3cccc(Cl)c3)c2cc1OC`: the melting point is 118 to 120 °C.
Under `CCCCC1c2ccccc2-c2cc(Br)ccc2N1S(=O)(=O)c1ccc(O)cc1` (stereo unspecified) stands 178 to 180 °C; under `O=C(O)[C@H](Cc1ccc(OCc2ccccc2)cc1)NS(=O)(=O)c1ccc(N2CCC(c3ccccc3)CC2)cc1`, 75 to 78 °C.
In the case of `CC12CCC(O)CC1CCC1C2CCC2(C)C(=O)CCC12O` (stereo unspecified), the melting point was 214 to 217 °C.
The same measure for `CC(=O)C1=C(C)NC2=C(C(=O)CCC2)C1c1cccc([N+](=O)[O-])c1` (stereo unspecified): above 250 °C.
Regarding `CC(=O)Oc1c2c(c3ccccc3c1OC(=O)CNC(=O)OC(C)(C)C)OC(C)(C)CC2`, the melting point came to 177 °C.
The same measure for `O=c1[nH]c(=S)n2c3c1cnn3C(c1cccc(F)c1)=CC2`: 298 to 300 °C.
Under `CCNC(=O)NS(=O)(=O)c1ccccc1-c1ccc(Cn2c(CC)nc3c(C)ccnc32)cc1` stands 240 to 245 °C.
